Source: patent US4421688A, “Macbecin derivatives” (Takeda Chemical Industries, Ltd., priority 1981, dated 1983)

Assay: Acute toxicity, mouse, intraperitoneal
Assay type: in vivo

For `COC1c2cc(O)cc(c2O)NC(=O)/C(C)=C/C=C\C(C)C(OC(N)=O)/C(C)=C/C(C)C(OC)C(O)CC1C` (centres unmarked) [E-5-R], the “acute toxicity as compared with Macbecin I and II (in words)” value (intraperitoneal, versus Macbecin I and II) was “lower toxicity as compared with Macbecin I and II” and the “acute toxicity (in words)” value (ip) was “low toxicity”.
